≈ marks a conversion by molar mass, not a printed value.
Assays:
[1] = system: Haemophilus influenzae; experiment: In vitro antibacterial activity against Haemophilia influenzae strains ATCC 30063 and ATCC 31517; type: functional
[2] = system: Moraxella catarrhalis; experiment: In vitro antibacterial activity against Moraxella catarrhalis strains 30607 and 30603 (MC).; type: functional
[3] = system: Staphylococcus epidermidis; experiment: In vitro antibacterial activity against Staphylococcus epidermidis strains UC12084, 30031, and CDC-CNS90 (SE); range is 16-32; type: functional
[4] = system: Staphylococcus aureus; experiment: In vitro antibacterial activity against Staphylococcus aureus strains UC12673, UC9213, ATCC 29213, and UC9271 (SA); range is 32-64; type: functional
[5] = system: Staphylococcus aureus; experiment: In vitro antibacterial activity against linezolid-resistant Staphylococcus aureus ATCC 29213 (LRSA).; type: functional
[6] = system: Enterococcus faecium; experiment: In vitro antibacterial activity against vancomycin-resistant Enterococcus faecium UC12712 (VRE).
[7] = system: Streptococcus pneumoniae; experiment: In vitro antibacterial activity against Streptococcus pneumoniae strains ATCC 6305 and 31573 (SPN); range is 8-16
[8] = In vivo Volume distribution (Vss) was determined after intravenous administration of compound (9.13+/-0.85 mg/kg) in male Sprague-Dawley rat; type: ADME, organism-based; conditions: read-out: Vss
[9] = system: Rattus norvegicus; experiment: In vivo Volume distribution (Vss) was determined after peroral administration of compound (158.5+/-2 mg/kg) in male Sprague-Dawley rat; type: ADME, organism-based; conditions: po
[10] = system: Rattus norvegicus; experiment: In vivo Volume distribution (Vss) was determined after peroral administration of compound (76.4+/-2.6 mg/kg) in male Sprague-Dawley rat; type: ADME, organism-based; conditions: po
[11] = system: Rattus norvegicus; experiment: In vivo Tmax was determined after peroral administration of compound (76.4+/-2.6 mg/kg) in male Sprague-Dawley rat; type: ADME, organism-based; conditions: po
[12] = system: Rattus norvegicus; experiment: In vivo Clearance (Cl) was determined after intravenous administration of compound (9.13+/-0.85 mg/kg) in male Sprague-Dawley rat; type: ADME, organism-based
[13] = system: Rattus norvegicus; experiment: In vivo Cmax was determined after peroral administration of compound (76.4+/-2.6 mg/kg) in male Sprague-Dawley rat; type: ADME, organism-based; parameters: route oral; conditions: po
[14] = In vivo Oral bioavailability (F)was determined after peroral administration of compound (158.5+/-2 mg/kg) in male Sprague-Dawley rat; type: ADME, organism-based
[15] = In vivo Oral bioavailability (F)was determined after peroral administration of compound (19.01+/-0.31 mg/kg) in male Sprague-Dawley rat; type: ADME, organism-based
[16] = In vivo Oral bioavailability (F)was determined after peroral administration of compound (76.4+/-2.6 mg/kg) in male Sprague-Dawley rat; type: ADME, organism-based
[17] = system: Rattus norvegicus; experiment: In vivo Tmax was determined after intravenous administration of compound (9.13+/-0.85 mg/kg) in male Sprague-Dawley rat; type: ADME, organism-based
[18] = In vivo Tmax was determined after peroral administration of compound (158.5+/-2 mg/kg) in male Sprague-Dawley rat; type: ADME, organism-based; conditions: po
[19] = system: Rattus norvegicus; experiment: In vivo Tmax was determined after peroral administration of compound (19.01+/-0.31 mg/kg) in male Sprague-Dawley rat; type: ADME, organism-based; conditions: po
[20] = system: Rattus norvegicus; experiment: In vivo Area under curve (AUC) was determined after intravenous administration of compound (9.13+/-0.85 mg/kg) in male Sprague-Dawley rat; type: ADME, organism-based
[21] = system: Rattus norvegicus; experiment: In vivo Area under curve (AUC) was determined after peroral administration of compound (19.01+/-0.31 mg/kg) in male Sprague-Dawley rat; type: ADME, organism-based; conditions: po
[22] = system: Rattus norvegicus; experiment: In vivo t1/2 was determined after intravenous administration of compound (9.13+/-0.85 mg/kg) in male Sprague-Dawley rat; type: ADME, organism-based
[23] = In vivo t1/2 was determined after peroral administration of compound (158.5+/-2 mg/kg) in male Sprague-Dawley rat; type: ADME, organism-based; conditions: po
[24] = system: Rattus norvegicus; experiment: In vivo t1/2 was determined after peroral administration of compound (19.01+/-0.31 mg/kg) in male Sprague-Dawley rat; type: ADME, organism-based; conditions: po
[25] = system: Rattus norvegicus; experiment: In vivo Cmax was determined after intravenous administration of compound (9.13+/-0.85 mg/kg) in male Sprague-Dawley rat; type: ADME, organism-based; parameters: route intravenous
[26] = In vivo Cmax was determined after peroral administration of compound (158.5+/-2 mg/kg) in male Sprague-Dawley rat; type: ADME, organism-based; parameters: route oral; conditions: po
[27] = system: Rattus norvegicus; experiment: In vivo Cmax was determined after peroral administration of compound (19.01+/-0.31 mg/kg) in male Sprague-Dawley rat; type: ADME, organism-based; parameters: route oral; conditions: po
[28] = system: Rattus norvegicus; experiment: In vivo Area under curve (AUC) was determined after peroral administration of compound (76.4+/-2.6 mg/kg) in male Sprague-Dawley rat; type: ADME, organism-based; conditions: po
[29] = system: Haemophilus influenzae; experiment: In vitro antibacterial activity against Haemophilia influenzae strains 30063 and ATCC 31517 (HI); range is 4-8; type: functional
[30] = system: Moraxella catarrhalis; experiment: In vitro antibacterial activity against Moraxella catarrhalis strains 30607 and 30603 (MC); range is 4-8; type: functional
[31] = system: Mus musculus; experiment: In vivo Efficacy of compound after peroral administration in mouse; type: functional; conditions: po
[32] = system: Staphylococcus epidermidis; experiment: In vitro antibacterial activity against Staphylococcus epidermidis strains UC12084, 30031, and CDC-CNS90 (SE); range is 1-24; type: functional
[33] = system: Staphylococcus aureus; experiment: In vitro antibacterial activity against Staphylococcus aureus strains UC12673, UC9213, ATCC 29213, and UC9271 (SA); range is 2-4; type: functional
[34] = system: Rattus norvegicus; experiment: In vivo t1/2 was determined after peroral administration of compound (76.4+/-2.6 mg/kg) in male Sprague-Dawley rat; type: ADME, organism-based; conditions: po
[35] = system: Rattus norvegicus; experiment: In vivo Area under curve (AUC) was determined after oral administration of compound (158.5+/-2 mg/kg) in male Sprague-Dawley rat
[36] = system: Staphylococcus aureus; experiment: In vitro antibacterial activity against Staphylococcus aureus strains UC12673, UC9213, ATCC 29213, and UC9271 (SA); range is 1-2; type: functional
[37] = system: Staphylococcus epidermidis; experiment: In vitro antibacterial activity against Staphylococcus epidermidis strains UC12084, 30031, and CDC-CNS90 (SE); range is 0.5-1; type: functional
[38] = system: Streptococcus pneumoniae; experiment: In vitro antibacterial activity against Streptococcus pneumoniae strains ATCC 6305 and 31573 (SPN); range is 0.5-1
[39] = system: Haemophilus influenzae; experiment: In vitro antibacterial activity against Haemophilia influenzae strains 30063 and ATCC 31517 (HI); range is 4-16; type: functional
[40] = system: Moraxella catarrhalis; experiment: In vitro antibacterial activity against Moraxella catarrhalis strains 30607 and 30603 (MC); range is 8-16; type: functional
[41] = system: Staphylococcus aureus; experiment: In vitro antibacterial activity against Staphylococcus aureus strains UC12673, UC9213, ATCC 29213, and UC9271 (SA); type: functional
[42] = system: Staphylococcus epidermidis; experiment: In vitro antibacterial activity against Staphylococcus epidermidis strains UC12084, 30031, and CDC-CNS90 (SE); range is 0.13-2; type: functional
[43] = system: Streptococcus pneumoniae; experiment: In vitro antibacterial activity against Streptococcus pneumoniae strains ATCC 6305 and 31573 (SPN); range is 1-2
[44] = system: Haemophilus influenzae; experiment: In vitro antibacterial activity against Haemophilia influenzae strains 30063 and ATCC 31517 (HI); range is 16-64; type: functional
[45] = system: Moraxella catarrhalis; experiment: In vitro antibacterial activity against Moraxella catarrhalis strains 30607 and 30603 (MC); range is 16-32; type: functional
[46] = system: Staphylococcus epidermidis; experiment: In vitro antibacterial activity against Staphylococcus epidermidis strains UC12084, 30031, and CDC-CNS90 (SE); range is 2-4; type: functional
[47] = system: Staphylococcus aureus; experiment: In vitro antibacterial activity against Staphylococcus aureus strains UC12673, UC9213, ATCC 29213, and UC9271 (SA); range is 4-16; type: functional

## O=C(NC[C@H]1CN(c2ccc(N3CC[S+]([O-])CC3)c(F)c2)C(=O)O1)c1ccccc1
[1]
  MIC: > 64 µg/mL
[2]
  MIC: > 64 µg/mL
[3]
  MIC: 16 µg/mL (≈ 37.1 µM)
[4]
  MIC: 32 µg/mL (≈ 74.2 µM)
[5]
  MIC: > 64 µg/mL
[6]
  MIC: 32 µg/mL (≈ 74.2 µM)
[7]
  MIC: 8 µg/mL (≈ 18.5 µM)

## O=C(NC[C@H]1CN(c2ccc(C3CC[S+]([O-])CC3)c(F)c2)C(=O)O1)C(F)F (some centres not stated)
[8]
  Vd: 1.78 L/kg
[9]
  Vss: 29.84 L/kg
[10]
  Vss: 29.84 L/kg
[11]
  T max: 0.5 h
[12]
  Cl: 37.25 mL/min/kg
[13]
  Cmax: 8600 ng/mL
[14]
  bioavailability: 85.7%
[15]
  bioavailability: 77.1%
[16]
  bioavailability: 95.1%
[17]
  T max: 1.98 min
[18]
  Tmax: 0.38 h
[19]
  T max: 0.38 h
[20]
  AUC: 4090 ng·h/mL
[21]
  AUC: 6570 ng·h/mL
[22]
  T1/2: 2.9 h
[23]
  half-life: 7.93 h
[24]
  T1/2: 3.6 h
[25]
  Cmax: 15600 ng/mL
[26]
  Cmax: 9070 ng/mL
[27]
  Cmax: 3470 ng/mL
[28]
  AUC: 32400 ng·h/mL
[29]
  MIC: 4 µg/mL (≈ 9.89 µM)
[30]
  MIC: 4 µg/mL (≈ 9.89 µM)
[31]
  ED50: 6.52 mg/kg
[32]
  MIC: 1 µg/mL (≈ 2.47 µM)
[33]
  MIC: 2 µg/mL (≈ 4.95 µM)
[34]
  T1/2: 4.25 h
[5]
  MIC: 16 µg/mL (≈ 39.6 µM)
[6]
  MIC: 2 µg/mL (≈ 4.95 µM)
[35]
  AUC: 60800 ng·h/mL

## CO/N=C/c1ccc(/C=C/C(=O)NC[C@H]2CN(c3ccc(N4CC[S+]([O-])CC4)c(F)c3)C(=O)O2)cc1
[1]
  MIC: > 64 µg/mL
[2]
  MIC: 4 µg/mL (≈ 7.77 µM)
[36]
  MIC: 1 µg/mL (≈ 1.94 µM)
[37]
  MIC: 0.5 µg/mL (≈ 0.972 µM)
[5]
  MIC: 64 µg/mL (≈ 124 µM)
[6]
  MIC: 2 µg/mL (≈ 3.89 µM)
[38]
  MIC: 0.5 µg/mL (≈ 0.972 µM)

## NC(=O)NC[C@H]1CN(c2ccc(C3CCS(=O)(=O)CC3)c(F)c2)C(=O)O1
[39]
  MIC: > 4 µg/mL
[40]
  MIC: > 8 µg/mL
[41]
  MIC: 16 µg/mL (≈ 41.5 µM)
[42]
  MIC: 0.13 µg/mL (≈ 0.337 µM)
[5]
  MIC: > 64 µg/mL
[6]
  MIC: 4 µg/mL (≈ 10.4 µM)
[43]
  MIC: 1 µg/mL (≈ 2.59 µM)

## O=C(/C=C/c1cccnc1)NC[C@H]1CN(c2ccc(C3CCS(=O)(=O)CC3)c(F)c2)C(=O)O1
[44]
  MIC: 16 µg/mL (≈ 33.8 µM)
[45]
  MIC: 16 µg/mL (≈ 33.8 µM)
[46]
  MIC: 2 µg/mL (≈ 4.22 µM)
[47]
  MIC: 4 µg/mL (≈ 8.45 µM)
[5]
  MIC: 32 µg/mL (≈ 67.6 µM)
[6]
  MIC: 8 µg/mL (≈ 16.9 µM)

Reference: ChEMBL document CHEMBL1136459, “New antibacterial tetrahydro-4(2H)-thiopyran and thiomorpholine S-oxide and S,S-dioxide phenyloxazolidinones” (Bioorg Med Chem Lett, 2003)
